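Step 1: Grow cells in 96-well plates. Step 2: Expose to compound for 48 hours at 5 concentrations. Step 3: Interpolate endpoints linearly; if unreached, use highest concentration. Definition used: TGI = concentration required for complete inhibition of growth.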
Legend:
Assay in all cases: NCI tumour cell line growth inhibition, 48 h
[1] = test system: OVCAR-3 ovarian
[2] = test system: MALME-3M melanoma
[3] = test system: HCC-2998 colon
[4] = test system: UACC-62 melanoma
[5] = test system: MDA-N
[6] = test system: NCI/ADR-RES ovarian
[7] = test system: NCI-H460 lung
[8] = test system: SK-OV-3 ovarian
[9] = test system: COLO 205 colon
[10] = test system: HT29 colon
[11] = test system: LOX IMVI melanoma
[12] = test system: SK-MEL-5 melanoma
[13] = test system: SF-539 CNS
[14] = test system: 786-0 renal
[15] = test system: KM12 colon
[16] = test system: SF-268 CNS
[17] = test system: HOP-62 NSCLC
[18] = test system: SNB-19 CNS
[19] = test system: MDA-MB-435
[20] = test system: A549 NSCLC
[21] = test system: SNB-75 CNS
[22] = test system: EKVX NSCLC
[23] = test system: CAKI-1 renal
[24] = test system: SR leukemia
[25] = test system: OVCAR-8 ovarian
[26] = test system: SN12C renal
[27] = test system: RXF 393 renal
[28] = test system: MCF7 breast
[29] = test system: PC-3 prostate
[30] = test system: U251 CNS
[31] = test system: SW-620 colon
[32] = test system: OVCAR-5 ovarian
[33] = test system: NCI-H226 lung
[34] = test system: NCI-H522 lung
[35] = test system: MDA-MB-231 breast
[36] = test system: DU-145 prostate
[37] = test system: ACHN renal
[38] = test system: TK-10 renal
[39] = test system: IGROV1 ovarian
[40] = test system: M14 melanoma
[41] = test system: A498 renal
[42] = test system: HL-60(TB) leukemia
[43] = test system: T-47D breast
[44] = test system: K-562 leukemia
[45] = test system: UO-31 renal
[46] = test system: SF-295 CNS
[47] = test system: MOLT-4 leukemia
[48] = test system: HCT-116 colon
[49] = test system: UACC-257 melanoma
[50] = test system: CCRF-CEM leukemia
[51] = test system: OVCAR-4 ovarian
[52] = test system: NCI-H23 lung
[53] = test system: SK-MEL-2 melanoma
[54] = test system: HCT-15 colon
[55] = test system: SK-MEL-28 melanoma

## O=c1c2ccccc2n2c(=S)[nH]nc2n1-c1ccccc1
[1]
  TGI: > 100 µM
[2]
  TGI: > 100 µM
[3]
  TGI: > 100 µM
[4]
  TGI: > 100 µM
[5]
  TGI: > 100 µM
[6]
  TGI: > 100 µM
[7]
  TGI: > 100 µM
[8]
  TGI: > 100 µM
[9]
  TGI: > 100 µM
[10]
  TGI: > 100 µM
[11]
  TGI: > 100 µM
[12]
  TGI: > 100 µM
[13]
  TGI: > 100 µM
[14]
  TGI: > 100 µM
[15]
  TGI: > 100 µM
[16]
  TGI: > 100 µM
[17]
  TGI: > 100 µM
[18]
  TGI: > 100 µM
[19]
  TGI: > 100 µM
[20]
  TGI: > 100 µM
[21]
  TGI: 84 µM
[22]
  TGI: > 100 µM
[23]
  TGI: > 100 µM
[24]
  TGI: > 100 µM
[25]
  TGI: > 100 µM
[26]
  TGI: > 100 µM
[27]
  TGI: > 100 µM
[28]
  TGI: > 100 µM
[29]
  TGI: > 100 µM
[30]
  TGI: > 100 µM
[31]
  TGI: > 100 µM
[32]
  TGI: > 100 µM
[33]
  TGI: > 100 µM
[34]
  TGI: > 100 µM
[35]
  TGI: > 100 µM
[36]
  TGI: > 100 µM
[37]
  TGI: > 100 µM
[38]
  TGI: > 100 µM
[39]
  TGI: > 100 µM
[40]
  TGI: > 100 µM
[41]
  TGI: > 100 µM
[42]
  TGI: > 100 µM
[43]
  TGI: > 100 µM
[44]
  TGI: > 100 µM
[45]
  TGI: > 100 µM
[46]
  TGI: > 100 µM
[47]
  TGI: > 100 µM
[48]
  TGI: > 100 µM
[49]
  TGI: > 100 µM
[50]
  TGI: > 100 µM
[51]
  TGI: > 100 µM
[52]
  TGI: > 100 µM
[53]
  TGI: > 100 µM
[54]
  TGI: > 100 µM
[55]
  TGI: > 100 µM

Source: PubChem BioAssay (NCI)
